Test results as given in patent US10717718B2 (priority 2015, dated 2020).
Entries after “also recorded” stand apart in the source; their conditions may differ.

Tests used:
Type in all cases: cell-based
Escherichia coli O13 = test system: Escherichia coli O13
[1] = test system: Legionella pneumophila serogroup 1; settings: 10 mM compound, 37° C., 24 hours, click with CR110-CCH, confocal microscopy
[2] = test system: Legionella gormanii (Fluoribacter gormanii)
Escherichia coli K12 = settings: E. coli K12; 10 mM compound, 37° C., 18 hours; click with CR110-CCH; confocal microscopy

## C=C(C[C@H](O)[C@H]1OC(C)(C)O[C@@H]1[C@H](O)CN=[N+]=[N-])C(=O)OCC [Compound 8b, ethyl (4S)-4-{(4R,5R)-5-[(R)-2-azido-1-hydroxyethyl]-2,2-dimethyl-1,3-dioxolan-4-yl)-4-hydroxy-2-methylenebutanoate]
Escherichia coli O13
  detection / labelling signal of bacteria: detected; also recorded: clear labelling signal
[1]
  detection / labelling signal of bacteria: detected; also recorded: clear labelling signal
[2]
  detection / labelling signal of bacteria: detected; also recorded: clear labelling signal
Escherichia coli K12
  detection / labelling signal of bacteria: detected; also recorded: clear labelling signal

## C=C(C[C@@H](O)[C@H]1OC(C)(C)O[C@@H]1[C@H](O)CN=[N+]=[N-])C(=O)OCC [Compound 8a, ethyl (4R)-4-{(4R,5R)-5-[(R)-2-azido-1-hydroxyethyl]-2,2-dimethyl-1,3-dioxolan-4-yl)-4-hydroxy-2-methylenebutanoate]
Escherichia coli O13
  detection / labelling signal of bacteria: detected; also recorded: clear labelling signal
[1]
  detection / labelling signal of bacteria: detected; also recorded: clear labelling signal
[2]
  detection / labelling signal of bacteria: detected; also recorded: clear labelling signal
Escherichia coli K12
  detection / labelling signal of bacteria: detected; also recorded: clear labelling signal
